Assay results as given in US20240424053A1, “METHODS AND COMPOSITIONS FOR PROVIDING MYOCARDIAL PROTECTION AND TREATING MYOCARDIAL STRESS AND FIBROSIS” (Tufts Medical Center, Inc., priority 2021, published 2024).
Where a SMILES comes first, the peptide text is derived from it. The star is where a group is joined. Palmitoyl = CCCCCCCCCCCCCCCC(=O)*

What was measured:
PAR1 [1] = molecular target: T1, PAR1 (Homo sapiens, UniProt P25116); test: TRIP-PCI phase 2 study in patients with CAD/ACS undergoing cardiac catheterization; type: in vivo; conditions: 9 patients with heart failure, EFs 30-53%
T1 construct: delivered intravenously in 100 patients with coronary artery disease (CAD) and acute coronary syndrome (ACS) undergoing cardiac catheterization; endogenous in cells; host or cells: patients of the TRIP-PCI trial (platelets ex vivo; whole body in vivo)
T1 sequence (P25116 22-425): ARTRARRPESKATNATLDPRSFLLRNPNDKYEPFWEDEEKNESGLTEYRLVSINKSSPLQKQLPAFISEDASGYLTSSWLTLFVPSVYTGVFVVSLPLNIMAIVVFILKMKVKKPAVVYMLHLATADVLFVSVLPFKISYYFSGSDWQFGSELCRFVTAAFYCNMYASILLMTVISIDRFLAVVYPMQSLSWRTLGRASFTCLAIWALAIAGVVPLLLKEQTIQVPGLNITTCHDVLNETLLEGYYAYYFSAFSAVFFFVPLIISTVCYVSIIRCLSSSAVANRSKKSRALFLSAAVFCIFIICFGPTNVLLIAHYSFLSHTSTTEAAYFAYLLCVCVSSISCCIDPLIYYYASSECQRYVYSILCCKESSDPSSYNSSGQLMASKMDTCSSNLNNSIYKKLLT
Description: TRIP-PCI was a multicenter, randomized, double-blind placebo-controlled phase 2 study that examined the safety, tolerability, and efficacy of PZ-128 at two dose levels (0.3 and 0.5 mg/kg, versus placebo, 1:1:1), delivered intravenously in 100 patients with coronary artery disease (CAD) and acute coronary syndrome (ACS) undergoing cardiac catheterization (Kuliopulos et al., Arterioscler. Thromb. Vasc. Biol 40(12):2990-3003, 2020). PAR1 inhibitors are intended to suppress thrombin-induced platelet activation to reduce damage during percutaneous coronary intervention (PCI) and ACS, potentially reducing the risk of myocardial infarction, stroke, and serious adverse events (Mackman et al., Nat. Rev. Drug Discov. 19(5):333-352, 2020). PZ-128 clinical trial participants received a single 2-h intravenous infusion of PZ-128 or placebo started just prior to catheterization along with standard antiplatelet therapy. […] The majority of events occurred within the first 24 h, with a nonsignificant decrease in hazard ratio (HR=0.81) of a MACE/myonecrosis event in the PZ-128 treated groups versus placebo. […]

PAR1 [2] = molecular target: T1, PAR1; conditions: cited from earlier work

CCCCCCCCCCCCCCCC(=O)N[C@@H](CCCCN)C(=O)N[C@@H](CCCCN)C(=O)N[C@@H](CO)C(=O)N[C@@H](CCCNC(=N)N)C(=O)N[C@@H](C)C(=O)N[C@@H](CC(C)C)C(=O)N[C@@H](Cc1ccccc1)C(N)=O [PZ-128, Palmitate-KKSRALF-NH2] (Palmitoyl-KKSRALF-NH2)
tolerability in heart failure patients (PAR1 [1]): tolerated well | PAR1 aggregation response recovered (PAR1 [2]; at 14 days post-dose): 50% | time at which inhibition of SFLLRN-induced platelet aggregation could be detected (PAR1 [2]; post-dose): ≤ 1 h | time of peak inhibition of SFLLRN-induced platelet aggregation (PAR1 [2]; post-dose): 24 h
